Laboratory results reported in publication PMC5762728 (Scientific Reports, 2018).
Each block holds one molecule with its values, some of them ahead of it.

Key:
N-domain of ACE [1] = settings: cited from earlier work
[2] = molecular target: T1, N-domain of bovine ACE (N-ACE) (Bos taurus, UniProt P12820); experiment: Hydrolysis of Aβ metal-binding-domain peptides by N-ACE, products identified/quantified by MALDI-TOF MS
T1 sequence (P12820 40-624 limits assumed): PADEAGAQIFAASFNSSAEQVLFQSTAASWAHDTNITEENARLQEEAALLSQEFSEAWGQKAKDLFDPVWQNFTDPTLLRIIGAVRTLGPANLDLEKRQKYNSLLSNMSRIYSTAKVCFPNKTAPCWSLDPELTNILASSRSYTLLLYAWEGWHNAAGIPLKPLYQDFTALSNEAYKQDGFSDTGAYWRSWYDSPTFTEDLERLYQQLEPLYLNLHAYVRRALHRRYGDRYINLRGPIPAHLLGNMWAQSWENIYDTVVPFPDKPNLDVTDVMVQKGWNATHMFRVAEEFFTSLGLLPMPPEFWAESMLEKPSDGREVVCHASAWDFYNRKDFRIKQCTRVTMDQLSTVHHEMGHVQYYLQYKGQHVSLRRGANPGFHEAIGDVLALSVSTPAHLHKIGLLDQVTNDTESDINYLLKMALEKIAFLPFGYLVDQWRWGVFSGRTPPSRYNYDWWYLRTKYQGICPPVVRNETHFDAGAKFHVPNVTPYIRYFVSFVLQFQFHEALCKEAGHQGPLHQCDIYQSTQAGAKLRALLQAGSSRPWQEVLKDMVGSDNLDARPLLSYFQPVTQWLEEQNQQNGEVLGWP

[3] = molecular target: T2, C-domain of bovine ACE (C-ACE) (Bos taurus, UniProt P12820); experiment: Hydrolysis of Aβ metal-binding-domain peptides by C-ACE, products identified/quantified by MALDI-TOF MS; settings: same experimental conditions as N-ACE, 37 °C
T2 sequence (P12820 643-1222 limits assumed): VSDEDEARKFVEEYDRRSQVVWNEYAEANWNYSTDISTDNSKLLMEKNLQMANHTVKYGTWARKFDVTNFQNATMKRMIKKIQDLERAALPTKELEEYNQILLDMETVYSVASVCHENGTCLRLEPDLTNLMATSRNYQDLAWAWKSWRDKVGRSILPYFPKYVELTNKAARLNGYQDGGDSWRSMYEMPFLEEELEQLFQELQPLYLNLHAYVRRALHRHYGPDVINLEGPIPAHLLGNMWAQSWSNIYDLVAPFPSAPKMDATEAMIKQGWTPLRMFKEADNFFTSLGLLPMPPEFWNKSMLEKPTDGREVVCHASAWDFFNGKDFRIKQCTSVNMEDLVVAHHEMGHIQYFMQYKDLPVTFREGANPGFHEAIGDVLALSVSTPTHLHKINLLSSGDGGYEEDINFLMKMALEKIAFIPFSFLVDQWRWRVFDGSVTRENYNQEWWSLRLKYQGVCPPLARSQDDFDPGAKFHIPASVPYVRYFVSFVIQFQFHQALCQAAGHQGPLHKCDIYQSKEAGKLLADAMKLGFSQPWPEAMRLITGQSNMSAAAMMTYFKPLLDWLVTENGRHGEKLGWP

[4] = molecular target: T2, C-domain of bovine ACE (C-ACE); experiment: Inhibition of C-ACE hydrolysis of Aβ peptides by lisinopril; type: biochemical; settings: lisinopril 10 μM; MALDI-TOF MS
N-domain of ACE (N-ACE) [5] = experiment: N-ACE with lisinopril; settings: bovine, 37 °C
C-domain of ACE (C-ACE) = experiment: C-ACE with lisinopril, ratAβ substrate; settings: bovine, 37 °C, up to 60 min
N-domain of ACE (N-ACE) [6] = experiment: N-ACE with lisinopril, ratAβ substrate; settings: bovine, 37 °C, up to 60 min
[7] = system: N-ACE (N-domain of bovine ACE); settings: 37 °C, up to 60 min
N-domain of ACE [8] = settings: cited from earlier work; remark: listed apart in the source

Peptide bond hydrolysed by N-ACE ([2]; bicarbonate buffer pH 7.8, 37 °C, incubation 40 min (Aβ(1-16)), 130 min (amidated Aβ peptides), 60 min (ratAβ peptide)): Arg13-His14 | Bond cleaved, N-ACE (backbone positions) ([2]; same digestion as products observed, N-ACE, 37 °C): 13–14
Molecule: Ac-DAEFGHDSGFEVRHQK-NH2 [[CH3CO]-Asp-Ala-Glu-Phe-Gly^5-His-Asp- Ser-Gly- Phe^10-Glu-Val-Arg-His-Gln^15-Lys-[NH2]]
Peptide bond(s) hydrolysed by C-ACE [3]: Arg13-His14, His14-Gln15, and Gln15- Lys16

not cleaved (N-domain of ACE (N-ACE) [5]): complete inhibition of hydrolysis
Molecule: [CH3CO]-Asp-Ala-Glu-Phe-Arg^5-His-Asp- Ser-Gly-Tyr^10-Glu-Val-His-His-Gln^15-Lys-[NH2]

not cleaved (C-domain of ACE (C-ACE)): complete inhibition of hydrolysis | not cleaved (N-domain of ACE (N-ACE) [6]): complete inhibition of hydrolysis | cleaved bond [7]: Arg13-His14, 10 min
Molecule: Ac-DAEFGHDSGFEVRHQK-NH2
not cleaved [7]: absence of endopeptidase activity toward the G5-H6 peptide bond

Second part, the molecule before the results:

Molecule: Pyr-HWSYGLRPG-[Amide] [luliberin, regulatory peptide, natural substrate of ACE]
Endoproteolytic cleavage by the N-domain of ACE (N-domain of ACE [1]): cleaves an N-terminal tripeptide

Molecule: NCCCC[C@H](N[C@@H](CCc1ccccc1)C(=O)O)C(=O)N1CCC[C@H]1C(=O)O [lisinopril]
Effect of lisinopril on C-ACE hydrolysis of Aβ(1-16) [4]: fully prevented the formation of these products of hydrolysis

Molecule: Pyr-HWSYGLRPG-[Amide]
fragment found (N-domain of ACE [8]): N-terminal tripeptide
